Some test systems named below: ACHN renal; HL-60(TB) leukemia; HOP-62 NSCLC; HOP-92 NSCLC; NCI-H522 lung; RXF 393 renal; SNB-19 CNS; U251 CNS.
Holding throughout (assay): inhibition of tumour cell growth, NCI panel, 48 h

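Interpolation was linear, between the two tested concentrations surrounding the appropriate level; five concentrations were tested over 48 hours in 96-well plates. GI50 is the concentration that inhibits growth by half. TGI is the concentration that stops growth completely.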 Some results are limits rather than exact numbers.

On to `COc1ccc2c(c1)NC1=C(C(=O)OC1)C2c1cc(OC)c2c(c1)OCO2` (configuration not stated), for which the GI50 with ACHN renal was 0.0567 µM; with HL-60(TB) leukemia, 0.0209 µM; in the assay with HOP-62 NSCLC, 0.0225 µM; in the assay on HOP-92 NSCLC, 1.36 µM; with RXF 393 renal, less than 0.0167 µM; with SNB-19 CNS it was 0.0519 µM. For the same molecule, in the assay with U251 CNS, the GI50 is 0.0236 µM. In addition, the TGI with ACHN renal was more than 100 µM; in the assay with HL-60(TB) leukemia it was more than 100 µM; with HOP-62 NSCLC, 70.8 µM; with HOP-92 NSCLC it was more than 87.9 µM; in the assay with NCI-H522 lung it was 0.0251 µM; in the assay on RXF 393 renal it was more than 72.4 µM. Moreover, the TGI in the assay with SNB-19 CNS and with U251 CNS was more than 100 µM in each case.

On to `COc1ccc(CCN2CC=Cn3c2nc2ccccc2c3=O)cc1`, for which the GI50 was 0.0919 µM with ACHN renal; less than 0.0116 µM in the assay on HL-60(TB) leukemia; 0.0346 µM with HOP-62 NSCLC; 0.127 µM in the assay with HOP-92 NSCLC; 0.0113 µM in the assay with NCI-H522 lung; 0.0309 µM in the assay with RXF 393 renal. Moreover, the values for the GI50 in the assay with SNB-19 CNS and in the assay with U251 CNS were 0.0614 µM and 0.0368 µM, respectively. The TGI with ACHN renal was more than 49.2 µM; in the assay on HL-60(TB) leukemia, 0.0648 µM; in the assay with HOP-62 NSCLC, more than 64 µM; with HOP-92 NSCLC, 29.5 µM; with NCI-H522 lung it was 0.0375 µM; in the assay on RXF 393 renal, more than 100 µM. Besides, the TGI with SNB-19 CNS and in the assay on U251 CNS was more than 100 µM each time.

Regarding `COc1cccc(N2C(=O)C3c4[nH]c5ccccc5c4C4CCCC4C3C2=O)c1` (configuration not stated), the TGI with ACHN renal is more than 10 µM; in the assay on HL-60(TB) leukemia, more than 10 µM; with HOP-62 NSCLC it was 6.25 µM; with HOP-92 NSCLC, more than 10 µM; in the assay with NCI-H522 lung, more than 10 µM; in the assay with RXF 393 renal, more than 10 µM. Moreover, the TGI in the assay on SNB-19 CNS and in the assay with U251 CNS was more than 10 µM each time.

`COc1ccc2c(c1)c(CC(=O)[Se]C)c(C)n2C(=O)c1ccc(Cl)cc1`: the GI50 with ACHN renal is more than 0.56 µM; in the assay with HL-60(TB) leukemia it was more than 0.398 µM; with HOP-62 NSCLC it was more than 0.306 µM; in the assay with HOP-92 NSCLC it was more than 0.336 µM; in the assay with NCI-H522 lung, more than 0.371 µM; with RXF 393 renal, more than 0.206 µM. The GI50 in the assay with SNB-19 CNS was more than 0.421 µM; in the assay on U251 CNS, more than 0.326 µM. In addition, the TGI was more than 1 µM in the assay with ACHN renal; more than 0.779 µM with HL-60(TB) leukemia; more than 0.615 µM with HOP-62 NSCLC; more than 0.533 µM with HOP-92 NSCLC; more than 0.677 µM with NCI-H522 lung; more than 0.5 µM with RXF 393 renal. For the same molecule, the TGI in the assay on SNB-19 CNS was more than 0.752 µM; in the assay on U251 CNS, more than 0.573 µM.

Regarding `NCCCC[C@@H]1NC(=O)[C@H]2CCCN2C(=O)[C@H](Cc2ccccc2)CNC(=O)[C@H](Cc2ccccc2)NC1=O`, the GI50 is more than 37.5 µM in the assay with ACHN renal; more than 11.3 µM in the assay with HL-60(TB) leukemia; more than 37.5 µM in the assay with HOP-62 NSCLC; more than 37.5 µM with HOP-92 NSCLC; more than 37.5 µM with NCI-H522 lung; more than 37.5 µM in the assay with RXF 393 renal. The GI50 with SNB-19 CNS and in the assay on U251 CNS was more than 37.5 µM each time. In addition, the TGI in the assay on ACHN renal, with HL-60(TB) leukemia, with HOP-62 NSCLC, in the assay on HOP-92 NSCLC, in the assay with NCI-H522 lung and with RXF 393 renal was more than 37.5 µM each time. For the same molecule, the TGI in the assay with SNB-19 CNS and in the assay on U251 CNS was more than 37.5 µM each time.

On to `Cc1cccc(/C=N/NC(=S)N2CCCC2)n1`, for which the GI50 in the assay with ACHN renal was 1.44 µM; in the assay on HL-60(TB) leukemia, 0.236 µM; in the assay on HOP-62 NSCLC it was 2.17 µM; with HOP-92 NSCLC, 0.536 µM; with RXF 393 renal, 2.09 µM; in the assay on SNB-19 CNS, 1.4 µM. Moreover, in the assay with U251 CNS, the GI50 is 0.821 µM. For the same molecule, the TGI in the assay with HL-60(TB) leukemia is 0.872 µM; with HOP-62 NSCLC, 0.942 µM; with NCI-H522 lung, more than 100 µM; in the assay with SNB-19 CNS it was more than 34.6 µM; in the assay on U251 CNS, more than 100 µM.

Turning to `Cc1cc2c(C(C)C)c(O)c(O)cc2c(O)c1-c1c(C)cc2c(C(C)C)c(O)c(O)cc2c1O`, the GI50 was 8.66 µM with ACHN renal; 9.07 µM in the assay on HL-60(TB) leukemia; 13 µM with HOP-62 NSCLC; 3.13 µM with HOP-92 NSCLC; 10.1 µM in the assay on NCI-H522 lung; 15.1 µM in the assay on RXF 393 renal. Also, the GI50 in the assay on SNB-19 CNS was 14.9 µM; in the assay with U251 CNS, 4.16 µM. The TGI worked out at 21.9 µM with ACHN renal; 34.1 µM with HL-60(TB) leukemia; 30.2 µM in the assay with HOP-62 NSCLC; 17.4 µM with HOP-92 NSCLC; 24.5 µM in the assay on NCI-H522 lung; 33.5 µM in the assay on RXF 393 renal. The TGI in the assay with SNB-19 CNS worked out at 35.6 µM; in the assay with U251 CNS, 14.5 µM.

Take `CC(=O)N1CC(C)(C)c2c(C)c(O)c(C)c(C)c21`: the TGI in the assay on ACHN renal, in the assay on HL-60(TB) leukemia, in the assay with HOP-62 NSCLC, in the assay on HOP-92 NSCLC, in the assay with NCI-H522 lung and with RXF 393 renal was more than 100 µM each time. Besides, the TGI in the assay with SNB-19 CNS and in the assay with U251 CNS was more than 100 µM throughout.

Regarding `Cc1c(C(=O)Nc2ccccc2)sc2ncn(Cc3cccc(Cl)c3)c(=O)c12`, the GI50 was 30.2 µM in the assay on ACHN renal; 16.3 µM in the assay on HL-60(TB) leukemia; 18.3 µM in the assay on HOP-62 NSCLC; 16.5 µM with HOP-92 NSCLC; 19 µM in the assay on NCI-H522 lung; 24.8 µM with RXF 393 renal. Also, the results for the GI50 in the assay on SNB-19 CNS and in the assay on U251 CNS were 30.1 µM and 34 µM, respectively. The TGI with ACHN renal was more than 100 µM; in the assay with HL-60(TB) leukemia it was more than 100 µM; with HOP-62 NSCLC, 45.8 µM; with HOP-92 NSCLC, 40.5 µM; in the assay with NCI-H522 lung, more than 100 µM; in the assay on RXF 393 renal, 71.4 µM. Also, the TGI in the assay with SNB-19 CNS and in the assay with U251 CNS was more than 100 µM throughout.

With `Cn1ncnc1[C@H]1c2n[nH]c(=O)c3cc(F)cc(c23)N[C@@H]1c1ccc(F)cc1`, the GI50 in the assay on ACHN renal is 54.3 µM; with HL-60(TB) leukemia, 10.3 µM; with HOP-62 NSCLC, 5.81 µM; in the assay with NCI-H522 lung it was more than 100 µM; with RXF 393 renal, 25.9 µM; in the assay on SNB-19 CNS, 22.8 µM. Besides, the GI50 with U251 CNS is 1.65 µM. Besides, the TGI in the assay with ACHN renal, in the assay on HL-60(TB) leukemia, in the assay on HOP-62 NSCLC, with HOP-92 NSCLC, with NCI-H522 lung and in the assay with RXF 393 renal was more than 100 µM throughout. Further, the TGI in the assay with SNB-19 CNS and in the assay on U251 CNS was more than 100 µM throughout.

For the molecule `COc1cc2nc(N3CCCC3)nc(NCc3ccccc3)c2cc1OC`, the GI50 is 1.89 µM in the assay with ACHN renal; 2.07 µM in the assay with HL-60(TB) leukemia; 12.3 µM with HOP-62 NSCLC; 2.36 µM with HOP-92 NSCLC; 2.14 µM in the assay on NCI-H522 lung; 1.41 µM with RXF 393 renal. Also, the GI50 in the assay on SNB-19 CNS was 5.05 µM; in the assay on U251 CNS, 1.88 µM. Also, the TGI in the assay on ACHN renal was 3.89 µM; with HL-60(TB) leukemia, 4.33 µM; in the assay with HOP-62 NSCLC it was 26.9 µM; in the assay with HOP-92 NSCLC, 14 µM; with NCI-H522 lung, 4.96 µM; in the assay with RXF 393 renal it was 3.06 µM. For the same molecule, the TGI turned out to be 17.7 µM in the assay with SNB-19 CNS and 3.92 µM with U251 CNS.

In the case of `COc1cc(C(=O)c2c(-c3ccccc3)oc3c(OC)cccc23)cc(OC)c1OC`, the GI50 in the assay with ACHN renal was 0.0719 µM; with HL-60(TB) leukemia it was 0.0448 µM; in the assay on HOP-62 NSCLC it was 0.071 µM; in the assay with HOP-92 NSCLC, 0.108 µM; in the assay on NCI-H522 lung, 0.0348 µM; with RXF 393 renal, 0.0414 µM. In addition, the GI50 in the assay on SNB-19 CNS is 0.0789 µM; in the assay with U251 CNS it was 0.0514 µM. Also, the TGI in the assay on ACHN renal is more than 100 µM; in the assay on HL-60(TB) leukemia, 0.2 µM; in the assay with HOP-62 NSCLC it was 47 µM; in the assay on HOP-92 NSCLC, 21.5 µM; with NCI-H522 lung, more than 34.4 µM; in the assay on RXF 393 renal, 4.69 µM. For the same molecule, the TGI with SNB-19 CNS and in the assay on U251 CNS was more than 100 µM each time.

In the case of `COC1CC(O[C@H]2CC[C@@]3(C)[C@H](CC[C@@H]4[C@@H]3CC[C@]3(C)[C@@H](C5=CC(=O)OC5)[C@@H](OC(C)=O)C[C@]43O)C2)OC(C)C1O` (some centres not stated), the GI50 in the assay with ACHN renal, with HL-60(TB) leukemia, in the assay with HOP-62 NSCLC, with HOP-92 NSCLC, with NCI-H522 lung and in the assay on RXF 393 renal was less than 0.01 µM throughout. In addition, the GI50 in the assay with SNB-19 CNS and with U251 CNS was less than 0.01 µM in each case. For the same molecule, the TGI was less than 0.01 µM in the assay with ACHN renal; less than 0.0331 µM in the assay with HL-60(TB) leukemia; less than 0.01 µM in the assay on HOP-62 NSCLC; less than 0.01 µM in the assay on HOP-92 NSCLC; less than 0.01 µM in the assay with NCI-H522 lung; less than 0.01 µM in the assay with RXF 393 renal. The TGI in the assay on SNB-19 CNS and with U251 CNS was less than 0.01 µM in each case.

`CC1(C)C2CCC13C(=O)C1OC3(C2)C2C(=O)c3ccccc3C(=O)C12` (configuration not stated): the GI50 in the assay on ACHN renal, in the assay with HL-60(TB) leukemia, with HOP-62 NSCLC, in the assay on HOP-92 NSCLC, in the assay on NCI-H522 lung and in the assay on RXF 393 renal was more than 100 µM throughout. Further, the GI50 in the assay on SNB-19 CNS and with U251 CNS was more than 100 µM in each case. For the same molecule, the TGI in the assay on ACHN renal, with HL-60(TB) leukemia, in the assay with HOP-62 NSCLC, in the assay on HOP-92 NSCLC, in the assay on NCI-H522 lung and in the assay with RXF 393 renal was more than 100 µM in each case. In addition, the TGI with SNB-19 CNS and in the assay with U251 CNS was more than 100 µM in each case.
